In data set [1] the test system is caspase cascade, human leukemia cancer cell line HL-60. Kind of data set: Caspase cascade activation assay (Example 90), HL-60. The conditions noted are these: 24 h incubation. It is filed as cell-based. On the procedure:
(§1) Human breast cancer cell lines T-47D and ZR-75-1, human prostate cancer cell line PC-3, human leukemia cancer cell line HL-60 and human non-transformed fibroblast cell line MRC-5 cells were grown according to media component mixtures designated by The American Type Culture Collection+10% FCS (Life Technologies, Inc.), in a 5% CO2-95% humidity incubator at 37° C. T-47D, ZR-75-1 and PC-3 cells were maintained at a cell density between 30 and 80% confluency and for HL-60 at a cell density of 0.1 to 0.6×10^6 cells/m. Cells were harvested at 600× g and resuspended at 0.65×10^6 cells/ml into appropriate media +10% FCS. […] The samples were mixed by agitation and incubated at room temperature.
(§2) The EC50 (nM) was determined by a sigmoidal dose-response calculation (Prism 2.0, GraphPad Software Inc.).

Data set [2] has as its system caspase cascade, human breast cancer cell line ZR-75-1. Briefly: Caspase cascade activation assay (Example 90), ZR-75-1. The conditions noted are these: 24 h incubation; for ZR-75-1 Ratio (caspase activity): ratio of net RFU of test compound to control, 0.16 to 10 μM. It is filed as cell-based. On the procedure: as §1, §2
Data set [3] deals with caspase cascade, human prostate cancer cell line PC-3. Kind of data set: Caspase cascade activation assay (Example 90), PC-3. It is filed as cell-based. The following applies: for EC50: Homo sapiens, read-out: PC-3 EC50 (caspase activation potency); for PC-3 Ratio (caspase activity): ratio of net RFU of test compound to control, 0.16 to 10 μM. On the procedure:
as §1, §2

In data set [4] the test system is caspase cascade, human non-transformed fibroblast cell line MRC-5. Kind of data set: Caspase cascade activation assay (Example 90), MRC-5. The conditions noted are these: ratio of net RFU of test compound to control; 24 h incubation, 0.16 to 10 μM. It is filed as cell-based. As for the experimental part:
as §1, §2

The next data set has as its system caspase cascade. The description is as above. It is filed as cell-based, human. The conditions noted are these: human. As for the experimental part:
as §1, §2

A short description of data set [5]: Inhibition of cell proliferation (GI50) and cell death (LC50), MRC-5. It is filed as cell-based. The following applies: human. As for the experimental part:
(§3) T47D, ZR-75-1, PC-3, human prostate cancer cell line DU-145, human non-small cell lung cancer cell line A-549, human small cell lung cancer cell line SHP-77, HL-60 and MRC-5 cells were grown and harvested as in Example 90. […] The samples were mixed by agitation and incubated at 37° C. for 2-4 h in a 5% CO2-95% humidity incubator. […] This determines the possible background absorbance of the test compounds. No absorbance for gambogic acid or its analogs or derivatives was found at 490 nm. After the 2-4 h incubation, the samples were read for absorbance as above (ATest).
(§4) Baseline for GI50 (dose for 50% inhibition of cell proliferation) and LC50 (dose for 50% cell death) of initial cell numbers was determined by adding an aliquot of 90 μl of cells or 90 μl of media, respectively, to wells of a 96-well microtiter plate containing 10 μl of a 10% DMSO in RPMI-1640 media solution. […] The samples were mixed by agitation and incubated at 37° C. for 2-4 h in a 5% CO2-95% humidity incubator. Absorbance was read as above, (AT=0) defining absorbance for initial cell number used as baseline in GI50 determinations and (Amin) defining absorbance for media alone used as baseline in LC50 determinations.
(§5) GI50 (dose for 50% inhibition of cell proliferation)
(§6) LC50 (dose for 50% cell death)
(§7) 50=100×[(ATest−Amin)/(AT=0−Amin)]

Data set [6] relates to caspase cascade, human breast cancer cell line T-47D. Kind of data set: Caspase cascade activation assay (Example 90), T-47D. The conditions noted are these: 24 h incubation; for T-47D Ratio (caspase activity): ratio of net RFU of test compound to control, 0.16 to 10 μM. It is filed as cell-based. As for the experimental part: as §1, §2
For another data set, the system named is PC-3 cells. Kind of data set: Inhibition of cell proliferation (GI50) and cell death (LC50), PC-3. The following applies: Homo sapiens, PC-3, 48 h. It is filed as cell-based. On the procedure: as §3, §4, §5, §6, §7
In data set [7] the test system is human non-small cell lung cancer cell line A-549. Kind of data set: Inhibition of cell proliferation (GI50) and cell death (LC50), A-549. It is filed as cell-based. The conditions noted are these: Homo sapiens. On the procedure:
as §3, §4, §5, §6, §7

A further data set concerns T-47D cells. Briefly: Inhibition of cell proliferation (GI50) and cell death (LC50), T-47D. The following applies: Homo sapiens, T47D, 48 h. It is filed as cell-based. As for the experimental part:
as §3, §4, §5, §6, §7

Data set [8] concerns human small cell lung cancer cell line SHP-77. Kind of data set: Inhibition of cell proliferation (GI50) and cell death (LC50), SHP-77. It is filed as cell-based. The following applies: Homo sapiens. On the procedure: as §3, §4, §5, §6, §7
The next data set relates to HL-60 cells. Kind of data set: Inhibition of cell proliferation (GI50) and cell death (LC50), HL-60. It is filed as cell-based. The following applies: Homo sapiens, HL-60, 48 h. On the procedure: as §3, §4, §5, §6, §7
For another data set, the system named is ZR-75-1 cells. Kind of data set: Inhibition of cell proliferation (GI50) and cell death (LC50), ZR-75-1. The conditions noted are these: Homo sapiens, ZR-75-1, 48 h. It is filed as cell-based. As for the experimental part: as §3, §4, §5, §6, §7
The subject of data set [9] is human prostate cancer cell line DU-145. Briefly: Inhibition of cell proliferation (GI50) and cell death (LC50), DU-145. It is filed as cell-based. The conditions noted are these: Homo sapiens, DU-145, 48 h. On the procedure: as §3, §4, §5, §6, §7
The next data set concerns MRC-5 cells. Kind of data set: Inhibition of cell proliferation (GI50) and cell death (LC50), MRC-5. It is filed as cell-based. The conditions noted are these: Homo sapiens, MRC5; MRC-5, 48 h; read-out: GI50 (dose for 50% inhibition of cell proliferation). On the procedure:
as §3, §4, §5, §6, §7

Data set [10] has as its system poly(ADP)ribose polymerase (PARP) cleavage, PC3 cells. Briefly: PARP cleavage western blot, PC3 cells. It is filed as cell-based, human. The conditions noted are these: 1 μM staurosporine, 2 h and 4 h (FIG. 5D). On the procedure:
(§8) Cleavage of the enzyme poly(ADP)ribose polymerase (PARP) by caspase-3 and related proteases is considered to be one of the molecular hallmarks of caspase-mediated apoptosis. Therefore, the ability of gambogic acid to induce PARP cleavage in four different human tumor cell lines (Jurkat cells, HL-60 cells, T47D cells and PC3 cells) was determined.
(§9) Cells were cultured in complete growth medium containing 10% FBS and treated with gambogic acid at concentrations of 2.5 μM or 5 μM for 2 to 4 h. Control cultures were treated with a drug vehicle (DMSO), or the well-characterized apoptosis inducer, staurosporine. At the end of the apoptosis induction period, the cells were harvested, washed once with PBS, quick-frozen on dry ice, and stored at −80° C. The cells were then lysed in a standard immunoblotting lysis buffer and samples of the lysates were electrophoresed on 4% to 20% gradient polyacrylamide gels. The proteins in the gels were then transferred to PVDF membranes and probed with a commercially-available rabbit polyclonal antibody to PARP.
(In general: Immunoblotting shows a protein as a band on a membrane.)

Data set [11] relates to poly(ADP)ribose polymerase (PARP) cleavage, T47D cells. Briefly: PARP cleavage western blot, T47D cells. It is filed as cell-based, human. The following applies: 1 μM staurosporine, 2 h and 4 h (FIG. 5C). As for the experimental part:
as §8, §9

Setting [12] is: read-out: LC50 (dose for 50% cell death).
Where [13] appears, read: read-out: GI50 (dose for 50% inhibition of cell proliferation).

Like-named read-outs stand apart in the source and are kept apart here.

A word on the EC50: it is the concentration that produces a half-maximal response. Take `COC(=O)/C(C)=C\CC12OC(C)(C)C3CC(C=C4C(=O)c5c(O)c6c(c(CC=C(C)C)c5OC431)OC(C)(CCC=C(C)C)C=C6)C2=O` (stereo not drawn) [Example 4, Methyl Gambogate]: in [1] (ratio of net RFU of test compound to control, 0.16 to 10 μM), the “HL-60 Ratio (caspase activity)” value is recorded as 7.7. The “ZR-75-1 Ratio (caspase activity)” value in data set [2] was 14.9. In addition, the EC50 in data set [3] (24 h) is 1330 nM. The “PC-3 Ratio (caspase activity)” value in [3] (24 h incubation) was determined as 3.9. Further, the “MRC-5 Ratio (caspase activity)” value in data set [4] was 27.8. Besides, the EC50 at 24 h in the data set with caspase cascade (24 h incubation, sigmoidal dose-response, read-out: MRC-5 EC50 (caspase activation potency)) is 501 nM. In data set [5] (MRC-5, 48 h, read-out: LC50 (dose for 50% cell death)), the CC50 at 48 h turned out to be 500 nM. In data set [6], the “T-47D Ratio (caspase activity)” value was found to be 16.8.
Turning to `CC(C)=CCCC1(C)C=Cc2c(O)c3c(c(CC=C(C)C)c2O1)OC12C(=CC4CC1C(C)(C)OC2(C/C=C(/C)C(=O)N1CCCCC1)C4=O)C3=O` (stereo not drawn) [Example 5, Gambogyl Piperidine], the EC50 in data set [1] (Homo sapiens, HL-60, sigmoidal dose-response, read-out: HL-60 EC50 (caspase activation potency)) is 200 nM; in data set [2] (Homo sapiens, ZR-75-1, sigmoidal dose-response, read-out: ZR-75-1 EC50 (caspase activation potency)), 783 nM; in data set [3] (24 h incubation, sigmoidal dose-response), 900 nM; in data set [6] (Homo sapiens, T47D, sigmoidal dose-response, read-out: T-47D EC50 (caspase activation potency)) it was 210 nM. Further, the CC50 was determined as 500 nM in the data set on PC-3 cells (setting [12]); 5000 nM in data set [7] (A549, 48 h, read-out: LC50 (dose for 50% cell death)); 50 nM in the data set with T-47D cells (setting [12]); 500 nM in data set [8] (SHP77, 48 h, read-out: LC50 (dose for 50% cell death)); 800 nM in the data set with HL-60 cells (setting [12]); 500 nM with ZR-75-1 cells (setting [12]). Besides, the CC50 in [9] (setting [12]) was determined as 500 nM. In addition, the GI50 in the data set on PC-3 cells (setting [13]) turned out to be 500 nM; in data set [7] (A549, A-549, 48 h, read-out: GI50 (dose for 50% inhibition of cell proliferation)), 800 nM; in the data set on T-47D cells (T-47D, read-out: GI50 (dose for 50% inhibition of cell proliferation)), 50 nM; in [8] (SHP77, SHP-77, 48 h, read-out: GI50 (dose for 50% inhibition of cell proliferation)), 500 nM; with HL-60 cells (setting [13]), 100 nM; in the data set with ZR-75-1 cells (setting [13]), 300 nM. Moreover, the results for the GI50 (in data set [9] (setting [13]); in the data set with MRC-5 cells) were 500 nM and 800 nM, respectively. Besides, in the data set on caspase cascade, the concentration giving a half-maximal response (EC50) at 24 h was 631 nM. Also, the CC50 at 48 h in data set [5] was 800 nM.
Take `COc1c2c(c(CC=C(C)C)c3c1C(=O)C1=CC4CC5C(C)(C)OC(C/C=C(/C)C(=O)N6CCCCC6)(C4=O)C15O3)OC(C)(CCC=C(C)C)C=C2` (stereo not drawn) [Example 7, 6-Methoxy-gambogyl Piperidine]: the “ZR-75-1 Ratio (caspase activity)” value in data set [2] is on record as 13.4. The “PC-3 Ratio (caspase activity)” value in [3] (24 h incubation) is 2.3. In addition, in data set [4], the “MRC-5 Ratio (caspase activity)” value is 9.4. The same molecule registered a 50% effective concentration (EC50) at 24 h with caspase cascade of 1200 nM. In [6], the “T-47D Ratio (caspase activity)” value came to 14.4.
As for `CN[C@@H]1C[C@H]2O[C@@](C)([C@@H]1OC)n1c3ccccc3c3c4c(c5c6ccccc6n2c5c31)C(=O)NC4` [staurosporine, reference compound], the PARP cleavage result in data set [10] and in data set [11] was “no cleavage of PARP” each time.

The values above are taken from patent US6613762B2, “Gambogic acid, analogs and derivatives as activators of caspases and inducers of apoptosis” (Cytovia, Inc., priority 1999, dated 2003).
